Counter-ions that a name gives are not always drawn.
Each molecule was assayed on Histone H3 Citrullination in Neutrophils (assay: Citrullination ELISA (Citrullinated Histone H3) in calcium ionophore stimulated neutrophils). Conditions: Neutrophil; human neutrophils, 25 μM calcium ionophore, CitH3 ELISA.
Assay type: cell-based
Method: Neutrophils were isolated according to the EasySep Direct Human Neutrophil Isolation Kit. In short, 50 mL of blood sample was drawn in a vacutainer containing K2EDTA from a healthy donor. To the whole blood, the isolation cocktail of 50 μL/mL was added. Then, in the next step 50 μL/mL of RapidSpheres™ was added to the sample. The sample was mixed evenly with the pipette and incubated for 10 minutes at room temperature. After incubation, PBS containing 1 mM EDTA was added at the ratio of 1:1 to the blood. Then the sample tube was incubated for 10 minutes. The enriched cell suspension was transferred into a new tube and RapidSpheres™ were added at 50 μL/mL to this suspension, mixed and incubated for 10 minutes at room temperature. At this step, the enriched cell suspension was carefully collected as a clear fraction into a fresh tube. Then, previous tube was replaced with the fresh tube containing enriched cell suspension. After the final separation, the clear solution of enriched cell suspension was carefully transferred to fresh tube which was ready to use for the experiment. These cells were then subjected to wash twice with plain RPMI 1640 media without Fetal Bovine Serum (FBS) and centrifuged at 1500 rpm for 5 minutes at room temperature. Cell counts were performed on each sample by Invitrogen cell counter. After the cell count, cell density was adjusted according to the experiment and re-suspended in complete RPMI media containing RPMI1640, 2% BSA and 1 mM CaCl2.
Freshly isolated neutrophils from human donor were seeded at a density of 0.5×10^6 cells in 400 μL cell suspension/well in a 24-well plate and cells were pre-incubated with the compound for 30 minutes by adding 50 μL of the 10× concentration to achieve the final 1× concentration of compound (10 μM, 1 μM and 0.1 μM). 1% DMSO was added in control wells. Then, the cells were stimulated in the presence and absence of calcium ionophore by adding 50 μL/well to achieve the final concentration of 25 μM. Upon incubation for 30 minutes with calcium ionophore, S7 nuclease was added to the wells and incubated for 10 minutes to disrupt NET DNA. Following incubation, 10 μL of 1 mM EDTA was added to inactivate nuclease. Cells were scrapped gently and transferred to the tubes, followed by centrifugation at 1500 rpm for 5 minutes. After centrifugation, supernatant was discarded, and 200 μL of lysis buffer containing PBS and 1× Protease inhibitor was added to the tubes. The obtained lysis was then subjected to mechanical shearing using Geno grinder by spin the plate at 2500 rpm for 10 minutes, followed by collection of supernatant and stored at −20° C. or immediately used for ELISA.
ELISA was performed as per Citrullinated Histone H3 ELISA Kit. All the buffer components from the kit were dissolved according to the manufactures protocol. ELISA Buffer Concentrate (10×) (Item No. 400060) and Wash Buffer Concentrate (400×) (Item No. 400060) along with polysorbate 20 (2000×) (Item No. 400035) was diluted to 1× with milliQ water. The standard for use in the ELISA was prepared as follows: • Obtain eight clean test tubes and label them, #1 through #8. Aliquot 4.9 mL of ELISA Buffer into tube #1. • Aliquot 500 μL of ELISA Buffer into the tubes #2-8. […] This tube is considered as blank, the lowest point on the standard curve.
100 μL of standards or diluted sample was added to the appropriate wells on the 96-well plate. Plates were covered with 96-well cover sheet and incubated for two hours at room temperature on an orbital shaker. The samples and standard were removed from the wells and washed four times with Wash Buffer. After the last wash, Anti-Histone H3 HRP Conjugate (Item No. 501441) (10×) stock solution was diluted in 1×ELISA buffer and 100 μL of the HRP Conjugate working solution was added to each well of the plate and incubated for one hour at room temperature on an orbital shaker. […]

| Structure (SMILES) | IC50 [nM] |
| --- | --- |
| N[C@@H]1CCCN(C(=O)c2cc3c4c(c2)nc(-c2cc5ccccc5n2Cc2ccc(CO)cc2)n4CCO3)C1 [Compound 123, (R)-(3-aminopiperidin-1-yl)(2-(1-(4-(hydroxymethyl)benzyl)-1H-indol-2-yl)-3,4-dihydro-5-oxa-1,2a-diazaacenaphthylen-7-yl)methanone trifluoroacetic acid salt] | 100 to 1000 |
| Cc1cc(C(=O)N2CCC[C@@H](N)C2)cc2nc(-c3cc4ccccc4n3Cc3ccccc3)c(C)n12 [Compound 26, (R)-(3-aminopiperidin-1-yl)(2-(1-benzyl-1H-indol-2-yl)-3,5-dimethylimidazo[1,2-a]pyridin-7-yl)methanone] | < 100 |
| COc1ccc2cc(-c3nc4cc(C(=O)N5CCC[C@@H](N)C5)ccn4c3C)n(Cc3ccc(F)cc3)c2c1 [Compound 80, (R)-(3-aminopiperidin-1-yl)(2-(1-(4-fluorobenzyl)-6-methoxy-1H-indol-2-yl)-3-methylimidazo[1,2-a]pyridin-7-yl)methanone] | > 1000 |
| COc1ccc2cc(-c3nc4cc(C(=O)N5CCC[C@@H](N)C5)cc5c4n3CCN5C)n(CC3CC3)c2c1 [Compound 160, (R)-(3-aminopiperidin-1-yl)(2-(1-(cyclopropylmethyl)-6-methoxy-1H-indol-2-yl)-6-methyl-5,6-dihydro-4H-imidazo[1,5,4-de]quinoxalin-8-yl)methanone] | < 100 |
| N[C@@H]1CCCN(C(=O)c2cc3c4c(c2)nc(-c2cc5cc(F)ccc5n2CC2CC2)n4CCN3)C1 [Compound 150, (R)-(3-aminopiperidin-1-yl)(2-(1-(cyclopropylmethyl)-5-fluoro-1H-indol-2-yl)-5,6-dihydro-4H-imidazo[1,5,4-de]quinoxalin-8-yl)methanone] | 100 to 1000 |
| N[C@@H]1CCCN(C(=O)c2cc3c4c(c2)nc(-c2cc5ccccc5n2CC2CCC2)n4CCO3)C1 [Compound 127, (R)-(3-aminopiperidin-1-yl)(2-(1-(cyclobutylmethyl)-1H-indol-2-yl)-3,4-dihydro-5-oxa-1,2a-diazaacenaphthylen-7-yl)methanone] | 100 to 1000 |
| N[C@@H]1CCCN(C(=O)c2cc3c4c(c2)nc(-c2cc5ccccc5n2Cc2ccccn2)n4CCO3)C1 [Compound 97, (R)-(3-aminopiperidin-1-yl)(2-(1-(pyridin-2-ylmethyl)-1H-indol-2-yl)-3,4-dihydro-5-oxa-1,2a-diazaacenaphthylen-7-yl)methanone] | 100 to 1000 |
| N[C@@H]1CCCN(C(=O)c2cc3c4c(c2)nc(-c2cc5ccc(F)cc5n2CC2CC2)n4CCN3)C1 [Compound 151, (R)-(3-aminopiperidin-1-yl)(2-(1-(cyclopropylmethyl)-6-fluoro-1H-indol-2-yl)-5,6-dihydro-4H-imidazo[1,5,4-de]quinoxalin-8-yl)methanone] | < 100 |
| COc1ccc(Cn2c(-c3nc4cc(C(=O)N5CCC[C@@H](N)C5)cc5c4n3CCO5)cc3ccccc32)cc1 [Compound 105, (R)-(3-aminopiperidin-1-yl)(2-(1-(4-methoxybenzyl)-1H-indol-2-yl)-3,4-dihydro-5-oxa-1,2a-diazaacenaphthylen-7-yl)methanone] | 100 to 1000 |
| CCn1c(-c2nc3cc(C(=O)N4CCC[C@@H](N)C4)ccn3c2C)cc2ccc(F)cc21 [Compound 72, (R)-(3-aminopiperidin-1-yl)(2-(1-ethyl-6-fluoro-1H-indol-2-yl)-3-methylimidazo[1,2-a]pyridin-7-yl)methanone] | 100 to 1000 |
| COc1ccc(Cn2c(-c3nc4cc(C(=O)N5CCC[C@@H](N)C5)ccn4c3C)cc3ccccc32)cc1 [Compound 12, (R)-(3-aminopiperidin-1-yl)(2-(1-(4-methoxybenzyl)-1H-indol-2-yl)-3-methylimidazo[1,2-a]pyridin-7-yl)methanone] | < 100 |
| N[C@@H]1CCCN(C(=O)c2cc3c4c(c2)nc(-c2cc5ccccc5n2Cc2ccncc2F)n4CCO3)C1 [Compound 110, (R)-(3-aminopiperidin-1-yl)(2-(1-((3-fluoropyridin-4-yl)methyl)-1H-indol-2-yl)-3,4-dihydro-5-oxa-1,2a-diazaacenaphthylen-7-yl)methanone] | < 100 |
| N[C@@H]1CCCN(C(=O)c2cc3c4c(c2)nc(-c2cc5cc(F)ccc5n2CC2CC2)n4CCO3)C1 [Compound 95, (R)-(3-aminopiperidin-1-yl)(2-(1-(cyclopropylmethyl)-5-fluoro-1H-indol-2-yl)-3,4-dihydro-5-oxa-1,2a-diazaacenaphthylen-7-yl)methanone] | < 100 |
| Cc1c(-c2cc3ccccc3n2Cc2ccc(F)cc2)nc2cc(C(=O)N3CCC[C@@H](N)C3)ccn12 [Compound 13, (R)-(3-aminopiperidin-1-yl)(2-(1-(4-fluorobenzyl)-1H-indol-2-yl)-3-methylimidazo[1,2-a]pyridin-7-yl)methanone] | 100 to 1000 |
| N[C@@H]1CCCN(C(=O)c2cc3c4c(c2)nc(-c2cc5ccccc5n2CC2CCOCC2)n4CCO3)C1 [Compound 126, (R)-(3-aminopiperidin-1-yl)(2-(1-((tetrahydro-2H-pyran-4-yl)methyl)-1H-indol-2-yl)-3,4-dihydro-5-oxa-1,2a-diazaacenaphthylen-7-yl)methanone] | > 1000 |
| Cc1c(-c2cc3ccc(F)cc3n2CC2CC2)nc2cc(C(=O)N3CCC[C@@H](N)C3)ccn12 [Compound 52, (R)-(3-aminopiperidin-1-yl)(2-(1-(cyclopropylmethyl)-6-fluoro-1H-indol-2-yl)-3-methylimidazo[1,2-a]pyridin-7-yl)methanone trifluoroacetic acid salt] | 100 to 1000 |
| CC(C)Cn1c(-c2nc3cc(C(=O)N4CCC[C@@H](N)C4)cc4c3n2CCO4)cc2cccc(Cl)c21 [Compound 141, (R)-(3-aminopiperidin-1-yl)(2-(7-chloro-1-isobutyl-1H-indol-2-yl)-3,4-dihydro-5-oxa-1,2a-diazaacenaphthylen-7-yl)methanone] | > 1000 |
| Cc1c(-c2cc3ccccc3n2CC(F)F)nc2cc(C(=O)N3CCC[C@@H](N)C3)ccn12 [Compound 78, (R)-(3-aminopiperidin-1-yl)(2-(1-(2,2-difluoroethyl)-1H-indol-2-yl)-3-methylimidazo[1,2-a]pyridin-7-yl)methanone trifluoroacetic acid salt] | > 1000 |
| COc1ccc2cc(-c3nc4cc(C(=O)N5CCC[C@@H](N)C5)ccn4c3C)n(Cc3cccnc3)c2c1 [Compound 51, (R)-(3-aminopiperidin-1-yl)(2-(6-methoxy-1-(pyridin-3-ylmethyl)-1H-indol-2-yl)-3-methylimidazo[1,2-a]pyridin-7-yl)methanone] | > 1000 |
| N[C@@H]1CCCN(C(=O)c2cc3c4c(c2)nc(-c2cc5ccccc5n2Cc2ccccc2F)n4CCO3)C1 [Compound 100, (R)-(3-aminopiperidin-1-yl)(2-(1-(2-fluorobenzyl)-1H-indol-2-yl)-3,4-dihydro-5-oxa-1,2a-diazaacenaphthylen-7-yl)methanone] | < 100 |
| Cc1c(-c2cc3ccc(F)cc3n2Cc2ccc(F)cc2)nc2cc(C(=O)N3CCC[C@@H](N)C3)ccn12 [Compound 54, (R)-(3-aminopiperidin-1-yl)(2-(6-fluoro-1-(4-fluorobenzyl)-1H-indol-2-yl)-3-methylimidazo[1,2-a]pyridin-7-yl)methanone] | < 100 |
| N[C@@H]1CCCN(C(=O)c2cc3c4c(c2)nc(-c2cc5ccccc5n2CC(F)F)n4CCO3)C1 [Compound 133, (R)-(3-aminopiperidin-1-yl)(2-(1-(2,2-difluoroethyl)-1H-indol-2-yl)-3,4-dihydro-5-oxa-1,2a-diazaacenaphthylen-7-yl)methanone] | > 1000 |
| N[C@@H]1CCCN(C(=O)c2cc3c4c(c2)nc(-c2cc5ccccc5n2Cc2ccc(Cl)cc2)n4CCO3)C1 [Compound 99, (R)-(3-aminopiperidin-1-yl)(2-(1-(4-chlorobenzyl)-1H-indol-2-yl)-3,4-dihydro-5-oxa-1,2a-diazaacenaphthylen-7-yl)methanone] | 100 to 1000 |
